{"source": "paper PMC6637423", "about": "(Organic & biomolecular chemistry, 2019)", "key": {"C57BL/6J mice [1]": {"system": "C57BL/6J mice", "assay": "55°C warm-water tail-withdrawal assay after i.c.v. administration", "type": "in vivo, mouse", "conditions": "1 nmol i.c.v., summed over 90 min"}, "C57BL/6J mice [2]": {"system": "C57BL/6J mice", "assay": "55°C warm-water tail-withdrawal assay after oral", "type": "in vivo, mouse", "conditions": "morphine 5 mg/kg, p.o."}, "C57BL/6J mice [3]": {"system": "C57BL/6J mice", "assay": "Respiration rate, Oxymax/CLAMS assay", "conditions": "morphine 30 mg/kg, i.p., positive control"}}}
{"compound": "CN1CC[C@]23c4c5ccc(O)c4O[C@H]2[C@@H](O)C=C[C@H]3[C@H]1C5", "note": "[Morphine]", "values": [{"measurement": "Screening: summed tail-withdrawal latency versus vehicle", "setting": "C57BL/6J mice [1]", "value": "withdrawal latencies equivalent to vehicle treated animals"}, {"measurement": "Antinociception after oral administration versus vehicle", "setting": "C57BL/6J mice [2]", "value": "significantly higher antinociceptive effects compared to vehicle treated animals"}, {"measurement": "Respiratory effect versus vehicle", "setting": "C57BL/6J mice [3]", "value": "suppressed respiration up to an hour"}]}
